Test results reported in patent publication US20250177566A1, “USE OF CHEMICAL EPIGENETIC MODIFIERS TO MODULATE GENE EXPRESSION” (The University of North Carolina at Chapel Hill, priority 2022, published 2025).

What was measured:
Format in all cases: cell-based, human
TRE3G-GFP reporter gene = TRE3G-GFP reporter gene activation in HCT116, dCas9 + MS2-FKBP*x2 (F36V) system, flow cytometry; design: fold change, GFP: reference not given here; details: FIG. 5A, 10 nM, 48 hrs
CXCR4 [1] = assay: CXCR4 mRNA activation in HCT116 stably expressing dCas9 and MS2-FKBP*x2, qRT-PCR; details: for fold change, CXCR4 mRNA (CEM Treated vs Non-Treated): 48 hrs; for fold change, CXCR4 mRNA (CXCR4 gRNA vs NT gRNA): FIG. 3B; for fold change, CXCR4 mRNA (CXCR4 gRNA vs NT gRNA) / fold change, CXCR4 mRNA (washout vs AP1867 competition) / fold change, CXCR4 mRNA (Compare to 0 h): CEM203 50 nM; for fold change, CXCR4 mRNA (washout vs AP1867 competition): FIG. 3C; for fold change, CXCR4 mRNA (Compare to 0 h): FIG. 7A
Description: To further explore the activation potential of the SLF*-CEMa, their ability to target endogenous genes was evaluated (FIGS. 2A and 2B). Lentivirus was used to establish a stable HCT116 cell line expressing dCas9 and MS2-FKBP*x2 constructs, selecting for cells with antibiotic resistance. […] All CEMs were screened for their ability to activate the CXCR4 gene at 5 nM (FIG. 2C). RNA extraction and quantitative RT-PCR (qRT-PCR) were performed after 48 hours of CEM treatment.
To determine the optimal treatment concentration of the SLF*-CEMa molecules in this context, HCT116 cells were treated with 1 nM, 5 nM, 25 nM, and 50 nM of CEM203, CEM207, or CEM87. […] After 48 hours, RNA extraction followed by qRT-PCR was performed to evaluate the change in mRNA expression of CXCR4 (FIG. 2D). […] To directly compare this induced activation to other CRISPR-Cas9-based epigenetic activators, dCas9-VPR and dCas9-p300 constructs were virally infected into HCT116 cells and CXCR4 activation assessed in a similar fashion (FIGS. 2A and 2B).
To determine the time at which SLF*-CEMa most effectively induces gene activation, CXCR4 gene expression changes over time were investigated in dCas9 and MS2-FKBP*x2 stably infected HCT116 cells. Cells were treated with either vehicle, […] (FIG. 3A). RNA extraction and qRT-PCR were performed at 12, 24, 48, 72, and 96 hrs time points (FIG. 3B).
To investigate if endogenous gene activation triggered by the SLF*-CEMa compounds is also reversible, HCT116 cells were treated with CEM203 (50 nM) or CEM207 (25 nM) for 24 hours after transfecting CXCR4 gRNA, and then the CEMs were removed by media exchange at various time points. […] Likewise, it was investigated whether treatment with excess AP1867 could further reverse gene activation, potentially in a more robust fashion than with washout alone if there is any remaining intracellular SLF*-CEMa. To test this, after 24 hours of SLF*-CEMa treatment, a media exchange containing 20 μM AP1867 was performed (FIGS. 3C and 3D).
RNA extraction and qRT-PCR. All RNA extraction experiments were conducted in 12-well plate format. Culturing medium was removed, and cells were washed with 1×PBS, following with 0.05% trypsin to disassociate. After being quenched by medium and centrifuged, cells were washed with 1×PBS, and the RNA extraction was performed by using RNeasy Plus Mini kit (Qiagen, 74134). RT-qPCR was conducted by using RNA-to CT 1-step kit (Thermo Fisher Scientific, 4389986). The primer sets used in quantifying each gene can be found in Table 4.

CXCR4 [2] = assay: CXCR4 mRNA activation in HCT116 stably expressing dCas9 and MS2-FKBPx2 (WT-FKBP), qRT-PCR; details: FIG. 6, WT FKBP system, 48 hrs

## CC[C@H](C(=O)N1CCCC[C@H]1C(=O)O[C@H](CCc1ccc(OC)c(OC)c1)c1cccc(OCC(=O)NCCOCCOCCOCCOCCNC(=O)C[C@@H]2N=C(c3ccc(Cl)cc3)c3cc(OC)ccc3-n3c(C)nnc32)c1)c1cc(OC)c(OC)c(OC)c1 [CEM203, (1R)-1-(3-((20-((4S)-6-(4-Chlorophenyl)-8-methoxy-1-methyl-4H-benzo[f][1,2,4]triazolo[4,3-a][1,4]diazepin-4-yl)-2,19-dioxo-6,9,12,15-tetraoxa-3,18-diazaicosyl)oxy)phenyl)-3-(3,4-dimethoxyphenyl) propyl (2S)-1-((S)-2-(3,4,5-trimethoxyphenyl)butanoyl) piperidine-2-carboxylate]
TRE3G-GFP reporter gene; NT gRNA
  fold change, GFP: 0.7 fold
TRE3G-GFP reporter gene; TRE3G gRNA
  fold change, GFP: 9.4 fold
CXCR4 [1]; FIG. 2D, CXCR4 gRNA, 1 nM
  fold change, CXCR4 mRNA (CEM Treated vs Non-Treated): 2.3 fold
CXCR4 [1]; FIG. 2D, CXCR4 gRNA, 5 nM
  fold change, CXCR4 mRNA (CEM Treated vs Non-Treated): 13.0 fold
CXCR4 [1]; FIG. 2D, CXCR4 gRNA, 25 nM
  fold change, CXCR4 mRNA (CEM Treated vs Non-Treated): 35.9 fold
CXCR4 [1]; FIG. 2D, CXCR4 gRNA, 50 nM
  fold change, CXCR4 mRNA (CEM Treated vs Non-Treated): 54.0 fold
CXCR4 [1]; FIG. 2D, NT gRNA, 1 nM
  fold change, CXCR4 mRNA (CEM Treated vs Non-Treated): 0.98 fold
CXCR4 [1]; FIG. 2D, NT gRNA, 5 nM
  fold change, CXCR4 mRNA (CEM Treated vs Non-Treated): 1.30 fold
CXCR4 [1]; FIG. 2D, NT gRNA, 25 nM
  fold change, CXCR4 mRNA (CEM Treated vs Non-Treated): 2.42 fold
CXCR4 [1]; FIG. 2D, NT gRNA, 50 nM
  fold change, CXCR4 mRNA (CEM Treated vs Non-Treated): 2.57 fold
CXCR4 [1]; FIG. 2D, concentrations above 5 nM
  CXCR4 activation compared to dCas9-p300: higher CXCR4 activation
CXCR4 [1]; 24 h
  fold change, CXCR4 mRNA (CXCR4 gRNA vs NT gRNA): 17.9 fold
CXCR4 [1]; 48 h
  fold change, CXCR4 mRNA (CXCR4 gRNA vs NT gRNA): 19.8 fold
  fold change, CXCR4 mRNA (washout vs AP1867 competition): 1.5 fold
CXCR4 [1]; 48 h AP1867 (washout with 20 μM AP1867 after 24 hrs)
  fold change, CXCR4 mRNA (CXCR4 gRNA vs NT gRNA): 3.6 fold
CXCR4 [1]; 48 h wash (media washout after 24 hrs)
  fold change, CXCR4 mRNA (CXCR4 gRNA vs NT gRNA): 7.7 fold
CXCR4 [1]; 72 h
  fold change, CXCR4 mRNA (CXCR4 gRNA vs NT gRNA): 13.1 fold
  fold change, CXCR4 mRNA (washout vs AP1867 competition): 4.2 fold
CXCR4 [1]; 72 h AP1867 (washout with 20 μM AP1867 after 24 hrs)
  fold change, CXCR4 mRNA (CXCR4 gRNA vs NT gRNA): 1.9 fold
CXCR4 [1]; 72 h wash (media washout after 24 hrs)
  fold change, CXCR4 mRNA (CXCR4 gRNA vs NT gRNA): 5.6 fold
CXCR4 [1]; 96 h AP1867 (washout with 20 μM AP1867 after 24 hrs)
  fold change, CXCR4 mRNA (CXCR4 gRNA vs NT gRNA): 1.2 fold
CXCR4 [1]; 96 h wash (media washout after 24 hrs)
  fold change, CXCR4 mRNA (CXCR4 gRNA vs NT gRNA): 3.3 fold
CXCR4 [1]; 96 h
  fold change, CXCR4 mRNA (washout vs AP1867 competition): 1.7 fold
CXCR4 [1]; NT gRNA, 12 h
  fold change, CXCR4 mRNA (Compare to 0 h): 4.9 fold
CXCR4 [1]; NT gRNA, 24 h
  fold change, CXCR4 mRNA (Compare to 0 h): 2.2 fold
CXCR4 [1]; NT gRNA, 48 h
  fold change, CXCR4 mRNA (Compare to 0 h): 1.1 fold
CXCR4 [1]; NT gRNA, 48 h AP1867 (washout with 20 μM AP1867 after 24 hrs)
  fold change, CXCR4 mRNA (Compare to 0 h): 0.8 fold
CXCR4 [1]; NT gRNA, 48 h wash (media washout after 24 hrs)
  fold change, CXCR4 mRNA (Compare to 0 h): 0.7 fold
CXCR4 [1]; NT gRNA, 72 h
  fold change, CXCR4 mRNA (Compare to 0 h): 1.0 fold
CXCR4 [1]; NT gRNA, 72 h AP1867 (washout with 20 μM AP1867 after 24 hrs)
  fold change, CXCR4 mRNA (Compare to 0 h): 0.6 fold
CXCR4 [1]; NT gRNA, 72 h wash (media washout after 24 hrs)
  fold change, CXCR4 mRNA (Compare to 0 h): 0.8 fold
CXCR4 [1]; NT gRNA, 96 h
  fold change, CXCR4 mRNA (Compare to 0 h): 1.3 fold
CXCR4 [1]; NT gRNA, 96 h AP1867 (washout with 20 μM AP1867 after 24 hrs)
  fold change, CXCR4 mRNA (Compare to 0 h): 0.5 fold
CXCR4 [1]; NT gRNA, 96 h wash (media washout after 24 hrs)
  fold change, CXCR4 mRNA (Compare to 0 h): 0.7 fold
CXCR4 [1]; FIGS. 3C and 3D, CEM203 50 nM or CEM207 25 nM for 24 hours, then media exchange, all time points
  CXCR4 mRNA expression after CEM washout in comparison to cells continuously treated: significantly lowered CXCR4 mRNA expression
CXCR4 [1]; time course 12, 24, 48, 72, 96 hrs, CXCR4 gRNA
  time point of highest (peak) CXCR4 mRNA activation: 24 h
CXCR4 [2]; 25 nM
  fold change, CXCR4 mRNA (CXCR4 gRNA vs NT gRNA): 1.5 fold
CXCR4 [2]; 200 nM
  fold change, CXCR4 mRNA (CXCR4 gRNA vs NT gRNA): 3.5 fold
